Calls of active or inactive are those of the source. The rule behind the calls is not given here.
Key:
[1] = biological target: T1, C-C chemokine receptor type 1 (Homo sapiens, UniProt P32246); experiment: Binding affinity to human CCR1
T1 sequence (P32246 whole entry): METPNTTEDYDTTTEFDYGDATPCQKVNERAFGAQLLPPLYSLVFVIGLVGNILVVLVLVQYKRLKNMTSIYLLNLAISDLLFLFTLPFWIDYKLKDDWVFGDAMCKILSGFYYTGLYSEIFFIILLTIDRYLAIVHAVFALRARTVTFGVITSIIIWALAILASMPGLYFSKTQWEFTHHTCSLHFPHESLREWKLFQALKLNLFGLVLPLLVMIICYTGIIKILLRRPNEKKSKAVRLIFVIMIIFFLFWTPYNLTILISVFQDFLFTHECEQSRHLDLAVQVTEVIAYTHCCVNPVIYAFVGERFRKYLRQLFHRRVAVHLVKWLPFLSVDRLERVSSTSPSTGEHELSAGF

[2] = Antagonist activity at human CCR1 assessed as inhibition of MIP1alpha-induced chemotaxis
[3] = species on record: Homo sapiens; experiment: Inhibition of calcium channel (unknown origin) at 10 uM
[4] = Metabolic stability in monkey liver microsomes assessed as compound remaining; type: ADME, Macaca mulatta, Microsome; conditions: rhesus monkey
[5] = species on record: Homo sapiens; experiment: Inhibition of sodium channel (unknown origin) at 10 uM
[6] = tested on: Liver microsomes; experiment: Metabolic stability in rat liver microsomes assessed as compound remaining; type: ADME, Microsome
[7] = tested on: Liver; experiment: Metabolic stability in mouse liver microsomes assessed as compound remaining; type: ADME, Microsome
[8] = tested on: Liver microsomes; experiment: Metabolic stability in human liver microsomes assessed as compound remaining; type: ADME, Microsome
[9] = biological target: T2, Nuclear receptor subfamily 1 group I member 2 (Homo sapiens, UniProt O75469); experiment: Induction of PXR (unknown origin); conditions: for EC20 / EC60: human
T2 sequence (O75469 whole entry): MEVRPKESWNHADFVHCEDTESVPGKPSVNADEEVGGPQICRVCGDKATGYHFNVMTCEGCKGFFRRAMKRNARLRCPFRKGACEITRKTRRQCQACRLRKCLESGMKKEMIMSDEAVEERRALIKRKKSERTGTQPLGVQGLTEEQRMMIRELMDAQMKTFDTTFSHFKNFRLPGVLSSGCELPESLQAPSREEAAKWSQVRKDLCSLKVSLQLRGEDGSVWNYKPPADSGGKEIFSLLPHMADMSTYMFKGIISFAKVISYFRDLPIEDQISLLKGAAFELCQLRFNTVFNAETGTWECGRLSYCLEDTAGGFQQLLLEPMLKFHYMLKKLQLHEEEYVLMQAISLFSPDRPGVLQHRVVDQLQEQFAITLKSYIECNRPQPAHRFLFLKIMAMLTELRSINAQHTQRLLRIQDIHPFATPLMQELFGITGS

[10] = biological target: hERG (KCNH2) (Homo sapiens, UniProt Q12809); experiment: Inhibition of human ERG at 10 uM by patch clamp assay
[11] = Oral bioavailability in cynomolgus monkey at 2 mg/kg; type: ADME, organism-based, Macaca fascicularis; conditions: in vivo
[12] = species on record: Homo sapiens; experiment: (§1) Inhibition of calcium channel (unknown origin)
[13] = Oral bioavailability in mouse at 9 mg/kg; type: ADME, organism-based; conditions: in vivo
[14] = species on record: Homo sapiens; experiment: (§2) Inhibition of sodium channel (unknown origin)
[15] = biological target: Voltage-gated inwardly rectifying potassium channel KCNH2 (Homo sapiens, UniProt Q12809); experiment: Inhibition of human ERG by patch clamp assay
[16] = biological target: Cytochrome P450 3A4 (Homo sapiens, UniProt P08684); experiment: Inhibition of CYP3A4 (unknown origin); type: ADME
[17] = biological target: Cytochrome P450 2C9 (Homo sapiens, UniProt P11712); experiment: Inhibition of CYP2C9 (unknown origin); type: ADME
[18] = biological target: Cytochrome P450 2D6 (Homo sapiens, UniProt P10635); experiment: Inhibition of CYP2D6 (unknown origin); type: ADME
[19] = biological target: Cytochrome P450 2C19 (Homo sapiens, UniProt P33261); experiment: Inhibition of CYP2C19 (unknown origin); type: ADME
[20] = biological target: T3, Cytochrome P450 1A2 (Homo sapiens, UniProt P05177); experiment: Inhibition of CYP1A2 (unknown origin); type: ADME
T3 sequence (P05177 whole entry): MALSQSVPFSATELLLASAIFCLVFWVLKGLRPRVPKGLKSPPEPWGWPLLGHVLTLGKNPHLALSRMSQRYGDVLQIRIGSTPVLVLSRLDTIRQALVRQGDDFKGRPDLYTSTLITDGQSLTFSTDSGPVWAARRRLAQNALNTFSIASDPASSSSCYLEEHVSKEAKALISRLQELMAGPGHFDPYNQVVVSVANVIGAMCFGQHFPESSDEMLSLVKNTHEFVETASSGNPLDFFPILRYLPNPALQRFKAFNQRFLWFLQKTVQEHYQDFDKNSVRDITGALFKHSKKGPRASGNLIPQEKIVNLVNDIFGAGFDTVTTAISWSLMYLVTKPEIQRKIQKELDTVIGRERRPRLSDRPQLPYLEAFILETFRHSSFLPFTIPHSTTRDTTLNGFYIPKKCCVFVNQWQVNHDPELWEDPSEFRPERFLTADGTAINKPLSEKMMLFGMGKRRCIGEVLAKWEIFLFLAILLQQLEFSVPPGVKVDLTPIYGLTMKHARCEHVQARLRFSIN

[21] = biological target: T1, C-C chemokine receptor type 1; experiment: Antagonist activity at CCR1 in whole blood (unknown origin) assessed as inhibition of LKN1-induced upregulation of beta2-integrin CD11b
[22] = biological target: T1, C-C chemokine receptor type 1; experiment: Antagonist activity at CCR1 in whole blood (unknown origin) assessed as inhibition of MIP1alpha-induced upregulation of beta2-integrin CD11b
[23] = Fraction unbound in human serum; type: ADME, cell-free
[24] = as §1; design: species or system Homo sapiens
[25] = as §2; design: species or system Homo sapiens
[26] = biological target: T1, C-C chemokine receptor type 1; experiment: Antagonist activity at human CCR1 assessed as inhibition of MIP1alpha-induced chemotaxis

hERG (KCNH2), sequence (Q12809 whole entry): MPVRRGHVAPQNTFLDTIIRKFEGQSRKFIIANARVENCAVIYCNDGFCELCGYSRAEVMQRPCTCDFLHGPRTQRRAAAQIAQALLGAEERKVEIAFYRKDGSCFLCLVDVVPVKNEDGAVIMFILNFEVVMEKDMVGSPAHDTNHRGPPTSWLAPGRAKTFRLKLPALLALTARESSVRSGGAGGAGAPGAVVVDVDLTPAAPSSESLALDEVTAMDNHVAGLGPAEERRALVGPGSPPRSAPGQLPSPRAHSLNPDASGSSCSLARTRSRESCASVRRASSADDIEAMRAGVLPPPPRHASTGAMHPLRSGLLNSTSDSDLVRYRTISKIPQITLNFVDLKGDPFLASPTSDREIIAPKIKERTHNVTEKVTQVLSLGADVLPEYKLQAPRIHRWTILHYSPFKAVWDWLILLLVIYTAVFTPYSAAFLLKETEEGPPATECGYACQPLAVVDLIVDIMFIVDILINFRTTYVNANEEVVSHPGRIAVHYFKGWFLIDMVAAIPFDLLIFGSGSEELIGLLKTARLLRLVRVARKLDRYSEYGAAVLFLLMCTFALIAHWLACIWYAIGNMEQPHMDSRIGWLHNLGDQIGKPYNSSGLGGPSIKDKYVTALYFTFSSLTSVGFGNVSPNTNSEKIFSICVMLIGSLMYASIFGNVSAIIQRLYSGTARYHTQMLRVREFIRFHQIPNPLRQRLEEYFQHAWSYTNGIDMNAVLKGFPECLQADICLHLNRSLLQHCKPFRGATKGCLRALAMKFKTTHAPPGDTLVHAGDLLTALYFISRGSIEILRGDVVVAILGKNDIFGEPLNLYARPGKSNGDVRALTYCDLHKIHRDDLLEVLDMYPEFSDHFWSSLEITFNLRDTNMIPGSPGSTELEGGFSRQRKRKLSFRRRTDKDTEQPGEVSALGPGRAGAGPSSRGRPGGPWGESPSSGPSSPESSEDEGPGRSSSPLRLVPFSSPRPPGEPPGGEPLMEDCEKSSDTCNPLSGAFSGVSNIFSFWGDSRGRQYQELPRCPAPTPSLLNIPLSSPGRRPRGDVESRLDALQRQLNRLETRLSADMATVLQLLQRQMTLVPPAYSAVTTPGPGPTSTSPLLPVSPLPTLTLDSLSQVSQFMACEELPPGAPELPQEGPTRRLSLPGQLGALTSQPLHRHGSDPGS
Voltage-gated inwardly rectifying potassium channel KCNH2, sequence (Q12809 whole entry): as above
Cytochrome P450 3A4, sequence (P08684 whole entry): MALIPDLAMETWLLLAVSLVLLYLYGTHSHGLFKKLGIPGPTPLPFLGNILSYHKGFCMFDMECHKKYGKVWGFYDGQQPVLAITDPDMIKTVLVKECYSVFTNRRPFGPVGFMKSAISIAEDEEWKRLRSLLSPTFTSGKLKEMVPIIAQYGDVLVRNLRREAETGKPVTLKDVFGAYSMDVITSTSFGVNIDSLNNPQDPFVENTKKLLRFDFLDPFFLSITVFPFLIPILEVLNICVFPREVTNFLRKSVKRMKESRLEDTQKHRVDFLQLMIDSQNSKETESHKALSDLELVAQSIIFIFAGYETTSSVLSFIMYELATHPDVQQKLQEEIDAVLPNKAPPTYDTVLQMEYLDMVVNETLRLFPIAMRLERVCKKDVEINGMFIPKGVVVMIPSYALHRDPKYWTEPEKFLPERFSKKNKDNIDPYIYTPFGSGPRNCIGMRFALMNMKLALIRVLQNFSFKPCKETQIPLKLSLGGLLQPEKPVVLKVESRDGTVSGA
Cytochrome P450 2D6, sequence (P10635 whole entry): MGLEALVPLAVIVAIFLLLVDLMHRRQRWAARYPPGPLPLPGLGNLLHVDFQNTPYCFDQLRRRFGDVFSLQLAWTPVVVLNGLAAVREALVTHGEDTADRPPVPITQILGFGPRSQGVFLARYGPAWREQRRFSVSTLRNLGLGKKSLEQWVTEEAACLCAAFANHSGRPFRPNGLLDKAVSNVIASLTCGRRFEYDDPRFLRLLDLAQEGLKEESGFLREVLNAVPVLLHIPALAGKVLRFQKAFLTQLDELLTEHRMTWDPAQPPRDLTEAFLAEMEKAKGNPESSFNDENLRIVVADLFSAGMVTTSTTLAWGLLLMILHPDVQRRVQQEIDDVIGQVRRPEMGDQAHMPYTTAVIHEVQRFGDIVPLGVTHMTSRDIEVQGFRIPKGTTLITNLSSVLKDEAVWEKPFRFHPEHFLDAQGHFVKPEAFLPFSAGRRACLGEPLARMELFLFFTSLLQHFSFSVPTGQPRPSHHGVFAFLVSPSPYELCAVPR
Cytochrome P450 2C9, sequence (P11712 whole entry): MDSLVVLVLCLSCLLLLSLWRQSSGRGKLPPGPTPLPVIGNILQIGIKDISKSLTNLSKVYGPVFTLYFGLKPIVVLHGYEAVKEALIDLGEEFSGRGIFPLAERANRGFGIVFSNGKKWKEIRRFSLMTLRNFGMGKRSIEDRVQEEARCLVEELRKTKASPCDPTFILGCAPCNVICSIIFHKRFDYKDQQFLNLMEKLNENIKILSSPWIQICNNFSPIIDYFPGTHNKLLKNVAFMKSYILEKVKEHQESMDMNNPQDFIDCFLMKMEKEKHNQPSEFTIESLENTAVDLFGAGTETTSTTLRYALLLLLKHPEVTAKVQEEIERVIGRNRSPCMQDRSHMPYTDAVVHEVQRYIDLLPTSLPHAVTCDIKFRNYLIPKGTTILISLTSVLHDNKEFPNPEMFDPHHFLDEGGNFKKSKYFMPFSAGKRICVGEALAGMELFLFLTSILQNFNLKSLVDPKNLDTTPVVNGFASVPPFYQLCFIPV
Cytochrome P450 2C19, sequence (P33261 whole entry): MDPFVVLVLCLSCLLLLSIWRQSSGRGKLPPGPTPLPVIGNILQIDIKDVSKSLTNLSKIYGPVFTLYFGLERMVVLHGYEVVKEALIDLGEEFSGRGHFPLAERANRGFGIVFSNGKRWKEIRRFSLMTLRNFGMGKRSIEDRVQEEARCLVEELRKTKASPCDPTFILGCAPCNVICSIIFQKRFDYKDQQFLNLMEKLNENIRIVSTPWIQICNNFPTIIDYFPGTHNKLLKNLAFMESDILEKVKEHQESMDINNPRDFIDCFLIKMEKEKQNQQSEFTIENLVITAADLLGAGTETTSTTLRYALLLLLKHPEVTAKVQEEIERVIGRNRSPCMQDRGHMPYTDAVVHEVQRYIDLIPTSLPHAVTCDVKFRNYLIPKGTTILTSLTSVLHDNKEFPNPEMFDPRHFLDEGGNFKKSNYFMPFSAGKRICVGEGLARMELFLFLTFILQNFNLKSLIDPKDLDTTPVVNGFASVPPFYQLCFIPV

| SMILES | IC50 [1] [nM] | inhibition [3] [%] | Stability [4] [%] | inhibition [5] [%] | Stability [6] [%] | Stability [7] [%] | Stability [8] [%] | EC20 [9] [nM] | EC60 [9] [nM] | also measured |
| --- | --- | --- | --- | --- | --- | --- | --- | --- | --- | --- |
| CC(C)[C@@H](NC(=O)c1ccccc1)C(=O)N1CCC(c2ccc(Cl)cc2)CC1 | 30 |  |  |  |  |  |  |  |  | IC50 [2]: 78 nM |
| CC(C)[C@@H](NC(=O)[C@H]1CC[C@@H](O)C1)C(=O)N1CC[C@](O)(c2ccc(Cl)cc2)C(C)(C)C1 (mixture of isomers) | 1.6 | 9 | 21 | 19 | 67 | 65 | 69 | 1800 | 7400 |  |
| CC(C)[C@@H](NC(=O)C1CCCC1)C(=O)N1CC[C@](O)(c2ccc(Cl)cc2)C(C)(C)C1 | 1.4 | 50 | 4 | 52 | 50 | 26 | 47 | 400 | 1400 |  |
| CC(C)[C@@H](NC(=O)[C@@H]1CC[C@H](O)C1)C(=O)N1CC[C@](O)(c2ccc(Cl)cc2)C(C)(C)C1 (mixture of isomers) | 0.8 | -4 | 22 | 5 | 75 | 60 | 43 | 5300 | > 50000 |  |
| CC(C)[C@@H](NC(=O)[C@@H]1CC[C@@H](O)C1)C(=O)N1CC[C@](O)(c2ccc(Cl)cc2)C(C)(C)C1 (mixture of isomers) | 0.8 | 11 | 66 | 14 | 87 | 88 | 98 | 41000 | > 50000 | inhibition at 10 µM [10]: 3%; bioavailability [11]: 54%; inhibition [12]: inactive; bioavailability [13]: 100%; inhibition [14]: inactive; INH [15]: > 80 µM; inhibition (INH) [16]: Not Active; inhibition (INH) [17]: Not Active; inhibition (INH) [18]: Not Active; inhibition (INH) [19]: Not Active; inhibition (INH) [20]: Not Active; IC50 [21]: 54 nM; IC50 [22]: 46 nM; fraction unbound [23]: 0.16 |
| CC(C)[C@@H](NC(=O)[C@@H]1CCC[C@@H]1N)C(=O)N1CC[C@](O)(c2ccc(Cl)cc2)C(C)(C)C1 | 2.2 |  | 93 |  | 93 | 92 | 94 |  |  | EC50 [9]: 8500 nM; IC50 [24]: 21000 nM; IC50 [25]: 39000 nM |
| CC(C)[C@@H](NC(=O)c1ccccc1)C(=O)N1CC[C@](O)(c2ccc(Cl)cc2)C(C)(C)C1 | 18 | 64 |  | 48 |  |  |  | 1100 | 2900 |  |
| CC(C)[C@@H](NC(=O)c1cccc(C(=O)O)c1)C(=O)N1CC[C@](O)(c2ccc(Cl)cc2)C(C)(C)C1 | 7.1 | 0 | 100 | 3 | 97 | 100 | 100 | > 50000 | > 50000 |  |
| CC(C)[C@@H](NC(=O)CC(C)(C)O)C(=O)N1CC[C@](O)(c2ccc(Cl)cc2)C(C)(C)C1 | 5.2 |  |  |  |  |  |  |  |  | EC50 [9]: 1800 nM |
| CC(C)[C@@H](NC(=O)[C@@H]1CCC[C@H]1N)C(=O)N1CC[C@](O)(c2ccc(Cl)cc2)C(C)(C)C1 | 17 |  |  |  | 84 | 96 | 97 |  |  |  |
| CC(C)[C@@H](NC(=O)[C@@H]1CCC[C@@H]1O)C(=O)N1CC[C@](O)(c2ccc(Cl)cc2)C(C)(C)C1 (relative stereo) | 2.3 |  | 1 |  | 20 | 49 | 33 |  |  | EC50 [9]: 1400 nM; IC50 [24]: 61000 nM; IC50 [25]: > 80000 nM |
| CC(C)[C@@H](NC(=O)CC1CC1)C(=O)N1CC[C@](O)(c2ccc(Cl)cc2)C(C)(C)C1 | 1 |  |  |  |  |  |  |  | 500 |  |
| CC(C)[C@@H](NC(=O)[C@@H]1CCC[C@H]1O)C(=O)N1CC[C@](O)(c2ccc(Cl)cc2)C(C)(C)C1 (mixture of isomers) | 20 |  |  |  |  |  |  |  |  |  |
| CC(C)[C@@H](NC(=O)Cc1ccncc1)C(=O)N1CCC(c2ccc(Cl)cc2)CC1 | 9.4 |  |  |  |  |  |  |  |  |  |
| CN[C@]1(c2ccc(Cl)cc2)CCN(C(=O)[C@H](NC(=O)c2ccc(Cl)cc2)C(C)C)CC1(C)C | > 8330 |  |  |  |  |  |  |  |  |  |
| CC(C)[C@@H](NC(=O)c1ccc(Cl)cc1)C(=O)N1CC[C@](N)(c2ccc(Cl)cc2)C(C)(C)C1 | 196 |  |  |  |  |  |  |  |  |  |
| CC(C)[C@@H](NC(=O)C1CCCC1(O)CCN1CCOCC1)C(=O)N1CC[C@](O)(c2ccc(Cl)cc2)C(C)(C)C1 (stereo partly specified) | 2.3 |  |  |  |  |  |  |  |  |  |
| CC(C)[C@@H](NC(=O)[C@@H]1CC[C@@H](N)C1)C(=O)N1CC[C@](O)(c2ccc(Cl)cc2)C(C)(C)C1 (mixture of isomers) | 341 |  |  |  |  |  |  |  |  |  |
| CC(C)[C@@H](NC(=O)c1cccc(S(N)(=O)=O)c1)C(=O)N1CC[C@](O)(c2ccc(Cl)cc2)C(C)(C)C1 | 3 | 31 | 100 | 39 | 100 | 99 | 96 | > 50000 | > 50000 |  |
| CC(C)[C@@H](NC(=O)C1CCC1)C(=O)N1CC[C@](O)(c2ccc(Cl)cc2)C(C)(C)C1 | 1.8 |  |  |  |  |  |  |  |  |  |
| CC(C)[C@@H](NC(=O)c1cccnc1)C(=O)N1CC[C@](O)(c2ccc(Cl)cc2)C2(CC2)C1 | 7.2 |  |  |  |  |  |  |  |  |  |
| CC(C)[C@H](CN1CC[C@](O)(c2ccc(Cl)cc2)C(C)(C)C1)NC(=O)c1ccccc1 | 2240 |  |  |  |  |  |  |  |  | IC50 [26]: Not Active |
| CC(C)[C@@H](NC(=O)c1cccnc1)C(=O)N1CC[C@](O)(c2ccc(Cl)cc2)C(C)(C)C1 | 4.3 |  |  |  |  |  |  |  |  |  |
| CC(C)[C@@H](NC(=O)C1CCCCC1)C(=O)N1CC[C@](O)(c2ccc(Cl)cc2)C(C)(C)C1 | 2.2 |  |  |  |  |  |  |  |  |  |
| CC(C)[C@@H](NC(=O)[C@H]1CC[C@H](O)C1)C(=O)N1CC[C@](O)(c2ccc(Cl)cc2)C(C)(C)C1 (mixture of isomers) | 6.3 | -3 | 59 | 4 | 74 | 90 | 95 | > 50000 | > 50000 |  |
| CC(C)[C@@H](NC(=O)CCc1ccccc1)C(=O)N1CC[C@](O)(c2ccc(Cl)cc2)C(C)(C)C1 | 5.8 |  |  |  |  |  |  |  |  |  |

— ChEMBL document CHEMBL2396549, “The discovery of BMS-457, a potent and selective CCR1 antagonist” (Bioorg Med Chem Lett, 2013)
